Data published in article PMC4978154, “Phase I metabolites of mephedrone display biological activity as substrates at monoamine transporters” (British Journal of Pharmacology, 2016).

Target: T1, hSERT (Homo sapiens, UniProt P31645)
T1 construct: yellow fluorescent protein (YFP); expressed in transfected cells
Assay: Transporter release (superfusion) assay in HEK293 cells expressing hSERT
Type: cell-based
Conditions: test drug 10 μM, monensin 10 μM; post hoc Bonferroni
Experimental: The generation of HEK293 cells stably expressing the human isoforms of DAT (hDAT) and NET (hNET) was carried out as described previously (Scholze et al., 2002). For SERT, the human isoform (hSERT) was cloned in frame with yellow fluorescent protein (Schmid et al., 2001). The generation of a stable cell line was performed as described by Hilber and colleagues (Hilber et al., 2005). HEK293 cells were maintained in humidified atmosphere (5% CO2, 37°C) in DMEM, supplemented with 10% heat‐inactivated FBS and penicillin (100 u 100 mL^−1) and streptomycin (100 μg 100 mL^−1). Selection pressure was maintained by adding geneticin (50 μg·mL^−1) to the cell culture media.
Superfusion experiments were performed as described previously (Scholze et al., 2002). […] Finally, the cells were lysed in 1% SDS to determine the total radioactivity. Radioactivity per fraction was assessed by a liquid scintillation counter and expressed as fractional release, that is, the percentage of released ^3H in relation to total ^3H present at the beginning of the fraction (Sitte et al., 2000). For analysis, release was expressed as AUC.
Calculations were performed using Microsoft Excel® 2010 (Microsoft Corporation, Redmond, WA, USA) and GRAPHPAD PRISM 5.0. […] IC50 values for uptake inhibition and EC50 values for release were determined by nonlinear regression fits. […]

T1 sequence (P31645 whole entry): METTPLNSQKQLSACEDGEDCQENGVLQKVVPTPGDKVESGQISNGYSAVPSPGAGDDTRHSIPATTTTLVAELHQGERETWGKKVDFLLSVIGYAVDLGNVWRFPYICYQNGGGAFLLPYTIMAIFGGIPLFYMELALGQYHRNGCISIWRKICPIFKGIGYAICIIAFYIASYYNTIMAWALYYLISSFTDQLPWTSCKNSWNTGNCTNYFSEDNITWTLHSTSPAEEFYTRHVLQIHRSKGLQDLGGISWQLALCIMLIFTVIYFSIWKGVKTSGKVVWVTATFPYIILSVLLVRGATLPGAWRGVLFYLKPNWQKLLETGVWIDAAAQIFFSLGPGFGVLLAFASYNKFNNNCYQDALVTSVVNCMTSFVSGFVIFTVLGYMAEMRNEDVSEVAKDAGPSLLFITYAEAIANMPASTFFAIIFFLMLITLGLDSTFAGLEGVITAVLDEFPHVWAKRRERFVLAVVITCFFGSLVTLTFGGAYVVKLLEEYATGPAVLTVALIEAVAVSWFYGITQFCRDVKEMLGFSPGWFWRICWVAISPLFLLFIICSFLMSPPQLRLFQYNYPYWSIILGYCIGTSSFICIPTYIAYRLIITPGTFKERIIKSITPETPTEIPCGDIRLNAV

## CNC(C)C(=O)c1ccc(C)cc1.Cl (stereo not shown) [Mephedrone, 2‐Methylamino‐1‐(p‐tolyl)propan‐1‐one hydrochloride]
  enhancement by monensin of drug-evoked [3H]-5-HT release at hSERT (AUC): significant
